Data set [1] relates to ZR-75-1 cells. The experiment in a line: Viability of ZR-75-1 breast cancer cells (MTT assay). Format: cell-based, human. The conditions noted are these: for inhibition at 100 µM: Homo sapiens, ZR-75-1, 72 hours, read-out: Decrease in cell number (maximal decrease = 100%), ZR-75-1. The protocol:
(§1) To quantify cell death, around the time when significant and characteristic morphological changes took place, cells were pulse-labeled for 10 minutes with [^3H]thymidine to measure DNA activity as described elsewhere [Tomono, M. and Kiss, Z. (1995), “Ethanol enhances the stimulatory effects of insulin and insulin-like growth factor-I on DNA synthesis in NIH 3T3 fibroblasts,” Biochem. Biophys. Res. Commun. 208, 63-67]. Also, cells were collected as suspensions using trypsin, an established method in cell biology, followed by re-plating of cells in fresh tissue culture medium. If no viable cells were obtained after one week in culture, it meant that the cells at the time of re-plating were dead. Survival values obtained with untreated cells were considered 100%. For the determination of relative number of viable cells after treatments, in most cases the MTT assay was used. This calorimetric assay is based on the ability of living cells, but not dead cells, to reduce 3-(4,5-dimethyl thiazol-2-yl)-2,5-diphenyltetrazolium bromide [Carmichael, J, De Graff, W. G., Gazdar, A. F., Minna, J. D. and Mitchell, J. B. (1987), “Evaluation of tetrazolium-based semi-automated calorimetric assay: Assessment of chemosensitivity testing,” Cancer Res. 47, 936-942]. For this assay, cells were plated in 96-well plates, and the MTT assay was performed both in untreated and treated cell cultures. The MTT assay also was performed at the start of treatments to allow assessment of proliferation rates in the control and treated cell cultures.
(§2) NIH3T3, T47D, A-431, HT-29, and MEL-28 cells were cultured as indicated earlier. CaOV-3 human ovarian cancer cells were cultured in DMEM containing 10% FBS. ZR-75-1 human estrogen receptor-positive breast cancer cells were maintained in RPMI 1640 medium supplemented with 10% FBS. HTB-157 human fetal fibroblasts, MEL-24 human malignant melanoma cells, Hep G2 human hepatoblastoma cells, and CaCO-2 human colon adenocarcinoma cells were maintained in Eagles's MEM containing 10% FBS. MB-231 human estrogen receptor-negative breast cancer cells were maintained in Leibovitz's L-15 medium supplemented with 10% FBS. Cells were seeded into 96-well plates and treated at ˜70-90% confluency. Two hours prior to treatments the medium was changed for fresh 10% serum medium, and then the cells were incubated for 10 days in the absence (□) or presence of 50 μM CCDTHT ? or 100 μM CCDTHT (▪). The medium was changed and the cells were re-treated on days 3 and 6. The MTT assay was used to determine cell viability on day 10. The data, shown in FIG. 6, are the mean±std. dev. of 8 incubations in one experiment. (The experiment was repeated twice with similar results).
(§3) NIH 3T3, MEL-28, MEL-24, CaOV-3, ZR-75-1, and T47D cells were cultured as described above. The OVCAR human ovarian cancer cells were cultured in DMEM containing 10% FBS. Cells were seeded into 96-well plates and used at ˜60-80% confluency. Two hours before treatments the medium was changed for fresh 10% serum medium, and then the cells were incubated for 72 hours in the absence or presence of 100 μM of each of CC compounds as listed in TABLE 3. The inhibitory effects of CC compounds on cell proliferation are expressed as percent decrease compared to untreated cell cultures (the greater the number, the greater the inhibitory effect of the CC compound). […] Also, for the treatment of ovarian cancer and breast cancer, CCDTHT seems to be the best choice (although in this experiment CCompounds21-26 were not tested).

Data set [2] deals with MEL-24 cells. The experiment in a line: Viability of MEL-24 melanoma cells (MTT assay). Format: cell-based. The settings on record: Homo sapiens; for inhibition at 100 µM: 72 hours, read-out: Decrease in cell number (maximal decrease = 100%), MEL-24. The protocol:
as §1, §2, §3

Data set [3] deals with OVCAR cells. Description: Viability of OVCAR ovarian cancer cells (MTT assay). Format: cell-based. The settings on record: Homo sapiens, 72 hours, read-out: Decrease in cell number (maximal decrease = 100%), OVCAR. The protocol: as §1, §3
In general terms: Formazan colour is commonly taken as a measure of viable cells.

The subject of data set [4] is HT-29 cells. Description: Viability of HT-29 colon adenocarcinoma cells (MTT assay). Format: cell-based, human. The conditions noted are these: for inhibition at 100 µM: HT-29, similar comparative study (100 μM, 72 hours), read-out: inhibition of proliferation, HT-29. The protocol: as §1
(§4) The NIH 3T3 (normal) mouse fibroblast, A431 human epidermoid adenocarcinoma, and MCF-7 human breast cancer cells were cultured in DMEM medium containing 10% FBS. The MEL-28 human melanoma cells were cultured in MEM medium containing 10% FBS. The HT-29 human colon adenocarcinoma cells were cultured in McCoy's 5a medium containing 10% FBS. The A549 human lung carcinoma cells were maintained in Ham's F12K medium containing 10% FBS. Cells were seeded into 96-well plates and treated at ˜70-90% confluency. Two hours before treatments the medium was changed for fresh 10% serum medium, and then the cells were incubated for 72 hours in the presence of 0-200 μM of CCompound1 (●) or CCompound3 (CCDTHT) (▴), as indicated. The MTT assay was used to determine cell viability after treatments. The values, shown in FIGS. 5A-5F and expressed as percent decrease in viability compared to the untreated control cells, are the mean±std. dev. of 8 incubations in one experiment. Similar results were obtained in another experiment.
as §2, with “The MTT assay was used to determine cell viability on day 10. The data, shown in FIG. 6, are the mean±std. dev. of 8 incubations in one experiment. (The experiment was repeated twice with similar results).” left out

Data set [5] concerns A-431 cells. Description: Viability of A-431 epidermoid adenocarcinoma cells (MTT assay). In kind it is cell-based, human. The settings on record: for inhibition at 100 µM: Homo sapiens, A-431, similar comparative study (100 μM, 72 hours), read-out: inhibition of proliferation, A-431. The protocol:
as §1, §4, §2
NIH 3T3, MEL-28, MEL-24, CaOV-3, ZR-75-1, and T47D cells were cultured as described above. The OVCAR human ovarian cancer cells were cultured in DMEM containing 10% FBS. Cells were seeded into 96-well plates and used at ˜60-80% confluency. […]

Data set [6] concerns PC-3 cells. The experiment in a line: Proliferation of PC-3 prostate cancer cells. In kind it is cell-based. The conditions noted are these: Homo sapiens, similar comparative study (100 μM, 72 hours).
The subject of data set [7] is A549 cells. The experiment in a line: Viability of A549 lung carcinoma cells (MTT assay). Format: cell-based, human. The protocol:
To quantify cell death, around the time when significant and characteristic morphological changes took place, cells were pulse-labeled for 10 minutes with [^3H]thymidine to measure DNA activity as described elsewhere [Tomono, M. and Kiss, Z. (1995), “Ethanol enhances the stimulatory effects of insulin and insulin-like growth factor-I on DNA synthesis in NIH 3T3 fibroblasts,” Biochem. Biophys. Res. Commun. 208, 63-67]. Also, cells were collected as suspensions using trypsin, an established method in cell biology, followed by re-plating of cells in fresh tissue culture medium. If no viable cells were obtained after one week in culture, it meant that the cells at the time of re-plating were dead. […]
The NIH 3T3 (normal) mouse fibroblast, A431 human epidermoid adenocarcinoma, and MCF-7 human breast cancer cells were cultured in DMEM medium containing 10% FBS. […] The values, shown in FIGS. 5A-5F and expressed as percent decrease in viability compared to the untreated control cells, are the mean±std. dev. of 8 incubations in one experiment. […]
(§5) NIH 3T3, MEL-28, MEL-24, CaOV-3, ZR-75-1, and T47D cells were cultured as described above. […] The inhibitory effects of CC compounds on cell proliferation are expressed as percent decrease compared to untreated cell cultures (the greater the number, the greater the inhibitory effect of the CC compound). […]

For data set [8], the system named is MB-231 cells. Description: Viability of MB-231 breast cancer cells (MTT assay). In kind it is cell-based, human. The protocol:
To quantify cell death, around the time when significant and characteristic morphological changes took place, cells were pulse-labeled for 10 minutes with [^3H]thymidine to measure DNA activity as described elsewhere [Tomono, M. and Kiss, Z. (1995), “Ethanol enhances the stimulatory effects of insulin and insulin-like growth factor-I on DNA synthesis in NIH 3T3 fibroblasts,” Biochem. Biophys. Res. Commun. 208, 63-67]. Also, cells were collected as suspensions using trypsin, an established method in cell biology, followed by re-plating of cells in fresh tissue culture medium. If no viable cells were obtained after one week in culture, it meant that the cells at the time of re-plating were dead. Survival values obtained with untreated cells were considered 100%. For the determination of relative number of viable cells after treatments, in most cases the MTT assay was used. […]
as §5

A short description of data set [9]: Toxicological studies in mice. In kind it is in vivo, mouse. The protocol: Accordingly, a well-tolerated dose for CCDTHT in mice is 450 μmole/animal (weighing about 25 g) which corresponds to a dose of 4.6 mg/kg. Therapeutically effective concentrations in humans will exert maximal inhibitory effects on the growth of non-healthy tissues without causing significant toxicity in normal healthy tissues.
Parallel toxicological studies also have been performed with 200-500 μmole/animal doses of the commercially available CCompound1. […] CCompound26, which may have an even better toxicity profile based on in vitro experiments with normal cells, was synthesized much later and has not yet been tested in animal experiments.

SMILES strings stand for the structures. Where a name gives a salt, the structure may show the parent alone.

Take `CC[N+](CC)(CCO)Cc1ccc2sc3ccccc3c(=O)c2c1` [CCcompound14, 2-Hydroxy-N,N-Diethyl-N-[(9-oxo-9H-thioxanthen-2-yl)methyl]-ethanaminium bromide]: the inhibition at 100 µM in data set [1] is 53%; in data set [2], 21%; in [3], 65%; in [4] (Homo sapiens), 63 to 71%.
Turning to `C[N+](C)(CCO)Cc1ccc2sc3ccccc3c(=O)c2c1` [CCcompound13, 2-Hydroxy-N,N-dimethyl-N-[(9-oxo-9H-thioxanthen-2-yl)methyl]-ethanaminium bromide], the inhibition at 100 µM in data set [1] came out at 48%; in data set [2], 12%; in data set [3], 27%.
For the compound `C[N+](C)(CCCO)Cc1ccc2sc3ccccc3c(=O)c2c1` [CCcompound15, 3-Hydroxy-N,N-dimethyl-N-[(9-oxo-9H-thioxanthen-2-yl)methyl]propane-1-aminium bromide], the inhibition at 100 µM in [1] was 41%; in data set [2], 0%; in [3], 26%.
Regarding `CC[N+](C)(CC)CCCOCc1ccc2sc3ccccc3c(=O)c2c1` [CCcompound10, N,N-Diethyl-N-methyl-3-[(9-oxo-9H-thioxanthen-2-yl)methoxy]-propane-1-aminium iodide], the results for the inhibition at 100 µM in [1], in [2] and in data set [3] were 65%, 15% and 38%, respectively.
`CC[N+](CC)(CCCO)Cc1ccc2sc3ccccc3c(=O)c2c1` [CCcompound16, 3-Hydroxy-N,N-diethyl-N-[(9-oxo-9H-thioxanthen-2-yl)methyl]-propane-1-aminium bromide]: the inhibition at 100 µM came out at 39% in data set [1], 0% in data set [2] and 0% in [3].
`CC[NH+](CC)CCCOCc1ccc2sc3ccccc3c(=O)c2c1` [CCcompound12, 2-{[3-(Diethylamino)propoxy]meth-yl}-9H-thioxanthen-9-one hydrochloride]: the inhibition at 100 µM is 17% in data set [1], 73% in data set [2], 30% in data set [3] and 68 to 74% in data set [5].
Turning to `CC[N+](C)(C)CCCOCc1ccc2sc3ccccc3c(=O)c2c1` [CCcompound11, N,N-Dimethyl-N-ethyl-3-[(9-oxo-9H-thioxanthen-2-yl)methoxy]-propane-1-aminium iodide], the inhibition at 100 µM was 75% in data set [1]; 54 to 55% in data set [6]; 20% in data set [2]; 68% in data set [7] (Homo sapiens, A549, similar comparative study (100 μM, 72 hours), read-out: inhibition of proliferation, A549); 62% in [3]; 75% in data set [8] (Homo sapiens, similar comparative study (100 μM, 72 hours), read-out: inhibition of proliferation, MB-231). Besides, the inhibition at 100 µM in [4] (Homo sapiens) is 63 to 71%.
Turning to `CC[N+](CC)(CC)CCCOCc1ccc2sc3ccccc3c(=O)c2c1` [CCcompound9, N,N,N-Triethyl-3-[(9-oxo-9H-thioxanthen-2-yl)methoxy]-propane-1-aminium iodide], the inhibition at 100 µM in [1] was 70%; in data set [2], 4%; in [3] it was 41%; in [5], 68 to 74%.
Regarding `CC[N+](C)(CC)CCOCc1ccc2sc3ccccc3c(=O)c2c1.[I-]` [CCDTHT, N,N-diethyl-N-methyl-2-[(9-oxo-9H-thioxanthen-2-yl)methoxy]-ethanaminium iodide], the “sensitivity to the inhibitory actions, ZR-75-1” value in [1] (50 and 100 μM, 10 days, MTT) was “very sensitive”. Moreover, the inhibition at 100 µM was 74% in [1]; 54 to 55% in [6]; 15% in data set [2]; 63% in data set [3]; 68 to 74% in [5]. Moreover, the cytotoxicity at 100 µM was at most 50% in data set [2] (240 h, 10 days, MTT, read-out: reduction in the number of viable cells, MEL-24) and at most 50% in data set [4] (Homo sapiens, HT-29, 240 h, 100 μM, 10 days, MTT, read-out: reduction in the number of viable cells, HT-29). For the same compound, in data set [7] (0-200 μM, 72 hours, MTT), the “reduction of cell numbers, A-549, CCDTHT versus CCompound1” value is “clearly more effective than CCompound1”. Besides, the “decrease in viability, A-431” value in data set [5] (0-200 μM, 72 hours, MTT) is listed as “similarly large effects”. In addition, the “sensitivity to the inhibitory actions, A-431” value in data set [5] (50 and 100 μM, 10 days, MTT) is recorded as “very sensitive”. Moreover, the “sensitivity to the inhibitory actions, MB-231” value in data set [8] (50 and 100 μM, 10 days, MTT) is “moderately sensitive”. Moreover, in data set [4] (0-200 μM, 72 hours, MTT), the “reduction of cell numbers, HT-29, CCDTHT versus CCompound1” value was “clearly more effective than CCompound1”. In addition, in [4] (100 μM, 72 hours, MTT), the “decrease in the number of viable cells versus 0.5 mM HC-3, HT-29” value is “much greater decreases in the number of viable cells compared to 0.5 mM HC-3”. The “death of animals by day 30” value in data set [9] (900 μmole (about 9.2 mg/kg)) was 40%. In addition, in [9] (900 μmole (about 9.2 mg/kg)), the tissue alterations entry is “mild parenchymal degeneration in the heart, focal hypostasis and chronic bronchopneumonia in the lung, and multifocal degeneration of hepatocytes in the liver”. Further, the “change in the composition of various blood constituents” value in [9] (single 450 μmole (about 4.6 mg/kg) or 400 μmole daily for 5 consecutive days) is on record as “did not cause any significant change”. The “pathological alterations in liver, brain, kidney, heart, spleen, intestine and lung” value in data set [9] (single 450 μmole or 400 μmole daily for 5 consecutive days) is recorded as “did not induce significant pathological alterations”.
